From patent publication US20230406865A1, “CRYSTAL FORM OF FREE BASE OF INHIBITOR CONTAINING BICYCLIC RING DERIVATIVE AND PREPARATION METHOD AND APPLICATION OF CRYSTAL FORM” (SHANGHAI HANSOH BIOMEDICAL CO., LTD., priority 2020, published 2023)
pIC50: −log10 of the molar value.

What was measured:
RET M918T = target: T1, RET M918T (Homo sapiens, UniProt P07949, M918T); test: HTRF kinase activity inhibition, RET M918T; type: biochemical; details: ATP at Km
T1 construct: purchased Carna 08-508
Source text: (§1) 2.2 Experimental Reagents: • RET enzyme was purchased from Carna Company, and the article number was 08-159; • RET M918T enzyme was purchased from Carna Company, and the article number was 08-508; • KIF5B-RET was purchased from SignalChem Company, the article number was R02-19FG-05; • CCDC6-RET was purchased from SignalChem Company, the article number was R02-19BG-05; • RET V804M enzyme was purchased from Thermofisher Company, and the article number was PV6223; • RET V804L enzyme was purchased from Thermofisher Company, and the article number was PV4397; • HTRF KinEASE-TK kit was purchased from Cisbio Company, and the article number was 62TK0PEC; • ATP was purchased from Thermofisher Company, and the article number was PV3227; • 384-well plate was purchased from PerkinElmer Company, and the article number was 6007290.
(§2) In this experiment, a homogeneous time-resolved fluorescence (HTRF) method was used for the detection of compounds on RET kinase activity.

CCDC6-RET = target: T2, CCDC6-RET (Homo sapiens, UniProt P07949); test: HTRF kinase activity inhibition, CCDC6-RET; type: biochemical; details: ATP at Km
T2 construct: purchased SignalChem R02-19BG-05; the other entry of the earlier key: CCDC6 (Q16204, Coiled-coil domain-containing protein 6)
T2 sequence (P07949 with tags, fused parts or gaps): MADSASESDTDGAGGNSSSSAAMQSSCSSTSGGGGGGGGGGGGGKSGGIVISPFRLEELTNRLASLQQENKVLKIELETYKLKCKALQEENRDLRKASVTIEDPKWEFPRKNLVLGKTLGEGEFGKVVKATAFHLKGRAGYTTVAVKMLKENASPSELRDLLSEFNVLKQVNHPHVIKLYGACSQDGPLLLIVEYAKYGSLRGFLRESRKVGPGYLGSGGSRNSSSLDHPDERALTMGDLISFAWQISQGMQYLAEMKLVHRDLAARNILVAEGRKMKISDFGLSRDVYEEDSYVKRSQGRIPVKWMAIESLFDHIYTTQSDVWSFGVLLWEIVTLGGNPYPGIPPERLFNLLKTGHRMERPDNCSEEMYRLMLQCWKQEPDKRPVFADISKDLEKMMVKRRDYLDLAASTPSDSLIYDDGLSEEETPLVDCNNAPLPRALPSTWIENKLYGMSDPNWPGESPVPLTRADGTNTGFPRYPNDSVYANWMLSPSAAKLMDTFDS
Source text: as §1, §2

RET V804M = target: T3, RET V804M (Homo sapiens, UniProt P07949, V804M); test: HTRF kinase activity inhibition, RET V804M; type: biochemical; details: ATP at Km
T3 construct: purchased Thermofisher PV6223
Source text: as §1, §2

RET V804L = target: T4, RET V804L (Homo sapiens, UniProt P07949, V804L); test: HTRF kinase activity inhibition, RET V804L; type: biochemical; details: ATP at Km
T4 construct: purchased Thermofisher PV4397
Source text: as §1, §2

KDR kinase = target: T5, KDR kinase (Homo sapiens, UniProt P35968); test: HTRF kinase activity inhibition, KDR; type: biochemical; details: for pIC50: HTRF, ATP at Km; for Ratio (KDR/RET): KDR IC50 / RET IC50
T5 construct: purchased Carna 08-191
In short: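 Inhibition of KDR kinase activity measured by homogeneous time-resolved fluorescence with a tyrosine-kinase KinEASE substrate kit and ATP.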

[1] = system: TT cells (MTC, RET C634W); test: Inhibition of proliferation of TT cells (CellTiter-Glo, 72 h); type: cell-based; details: Homo sapiens
In short: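 TT cells seeded overnight, then exposed to compound dilutions for 72 h at 37 °C, 5% CO2, with a solvent control. Viability read by CellTiter-Glo luminescence; IC50 from nonlinear regression of inhibition rate versus concentration.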

Ba/F3 KIF5B-RET cells = target: T6, Ba/F3 KIF5B-RET cells (Homo sapiens, UniProt P07949); test: Inhibition of proliferation of Ba/F3 KIF5B-RET cells (CellTiter-Glo); type: cell-based; details: 72 to 144 hours
T6 construct: fused on or other part: P33176 (Kinesin-1 heavy chain)
In short: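 Cells plated overnight, then exposed to compound dilutions in DMSO/medium at 37° C, 5% CO2 for 72 to 144 hours. Viability read by CellTiter-Glo luminescence; IC50 from inhibition rates fitted by nonlinear regression.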

T4 sequence (P07949 29-1114 V804L): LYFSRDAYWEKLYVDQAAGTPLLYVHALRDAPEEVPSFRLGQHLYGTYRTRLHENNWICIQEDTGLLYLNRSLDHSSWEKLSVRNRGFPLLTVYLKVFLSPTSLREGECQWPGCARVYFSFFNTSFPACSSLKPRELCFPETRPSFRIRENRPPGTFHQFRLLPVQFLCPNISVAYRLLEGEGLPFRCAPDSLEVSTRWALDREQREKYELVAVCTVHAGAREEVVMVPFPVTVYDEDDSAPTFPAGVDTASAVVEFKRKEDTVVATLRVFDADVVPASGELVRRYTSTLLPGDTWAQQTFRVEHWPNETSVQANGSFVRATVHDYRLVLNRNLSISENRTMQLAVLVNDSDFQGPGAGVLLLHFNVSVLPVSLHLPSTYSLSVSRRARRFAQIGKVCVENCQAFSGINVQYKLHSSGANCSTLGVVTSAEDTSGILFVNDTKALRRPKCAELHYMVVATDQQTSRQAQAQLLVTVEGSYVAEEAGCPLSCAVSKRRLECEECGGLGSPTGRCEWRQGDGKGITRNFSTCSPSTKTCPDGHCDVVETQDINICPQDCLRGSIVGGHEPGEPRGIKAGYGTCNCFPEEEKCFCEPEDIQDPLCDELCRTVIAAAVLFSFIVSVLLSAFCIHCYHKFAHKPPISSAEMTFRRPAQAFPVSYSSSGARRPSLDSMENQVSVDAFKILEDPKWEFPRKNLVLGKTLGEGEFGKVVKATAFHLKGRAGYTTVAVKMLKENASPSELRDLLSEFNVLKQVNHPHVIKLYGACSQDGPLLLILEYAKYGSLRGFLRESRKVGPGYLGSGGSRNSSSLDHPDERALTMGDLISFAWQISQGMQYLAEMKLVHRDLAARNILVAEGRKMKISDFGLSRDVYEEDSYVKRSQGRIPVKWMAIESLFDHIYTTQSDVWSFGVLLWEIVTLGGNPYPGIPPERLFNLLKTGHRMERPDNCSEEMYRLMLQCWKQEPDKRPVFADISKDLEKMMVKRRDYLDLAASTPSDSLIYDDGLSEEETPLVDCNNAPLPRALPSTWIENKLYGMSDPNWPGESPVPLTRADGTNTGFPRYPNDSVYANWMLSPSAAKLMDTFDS
T3 sequence (P07949 29-1114 V804M): as the sequence (P07949 29-1114 V804L) above, with L776M counted along it
T6 sequence (P07949 whole entry, change not shown, the tested form may be a part): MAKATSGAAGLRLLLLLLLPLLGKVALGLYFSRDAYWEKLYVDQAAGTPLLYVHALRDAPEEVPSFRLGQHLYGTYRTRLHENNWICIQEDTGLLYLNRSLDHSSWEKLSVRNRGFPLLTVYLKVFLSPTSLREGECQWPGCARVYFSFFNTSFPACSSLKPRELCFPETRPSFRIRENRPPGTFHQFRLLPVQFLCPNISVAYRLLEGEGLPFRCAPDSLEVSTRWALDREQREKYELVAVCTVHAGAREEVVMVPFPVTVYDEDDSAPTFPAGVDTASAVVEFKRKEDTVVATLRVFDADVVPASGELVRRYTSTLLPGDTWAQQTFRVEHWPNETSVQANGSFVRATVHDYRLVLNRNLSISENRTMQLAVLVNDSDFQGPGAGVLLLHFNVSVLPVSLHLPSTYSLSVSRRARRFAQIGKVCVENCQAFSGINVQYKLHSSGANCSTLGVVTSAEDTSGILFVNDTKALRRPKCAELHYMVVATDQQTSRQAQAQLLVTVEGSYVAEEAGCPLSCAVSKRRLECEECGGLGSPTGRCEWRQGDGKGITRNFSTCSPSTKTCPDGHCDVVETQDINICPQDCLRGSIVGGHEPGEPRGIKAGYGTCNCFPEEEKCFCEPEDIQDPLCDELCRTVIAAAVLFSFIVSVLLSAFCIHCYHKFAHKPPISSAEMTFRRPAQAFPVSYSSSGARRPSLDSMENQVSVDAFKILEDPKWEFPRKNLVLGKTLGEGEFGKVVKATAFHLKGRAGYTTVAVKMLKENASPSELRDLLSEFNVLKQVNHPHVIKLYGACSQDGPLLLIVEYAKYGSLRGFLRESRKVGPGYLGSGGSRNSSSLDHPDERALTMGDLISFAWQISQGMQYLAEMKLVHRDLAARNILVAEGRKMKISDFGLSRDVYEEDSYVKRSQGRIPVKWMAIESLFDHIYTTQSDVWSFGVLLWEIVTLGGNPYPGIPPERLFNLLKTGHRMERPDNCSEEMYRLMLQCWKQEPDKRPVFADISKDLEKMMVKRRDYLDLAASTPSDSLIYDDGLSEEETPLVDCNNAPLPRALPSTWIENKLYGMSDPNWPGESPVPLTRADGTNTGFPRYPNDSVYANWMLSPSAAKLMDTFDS
T1 sequence (P07949 29-1114 M918T): as the sequence (P07949 29-1114 V804L) above, with L776V, M890T counted along it
T5 sequence (P35968 20-1356): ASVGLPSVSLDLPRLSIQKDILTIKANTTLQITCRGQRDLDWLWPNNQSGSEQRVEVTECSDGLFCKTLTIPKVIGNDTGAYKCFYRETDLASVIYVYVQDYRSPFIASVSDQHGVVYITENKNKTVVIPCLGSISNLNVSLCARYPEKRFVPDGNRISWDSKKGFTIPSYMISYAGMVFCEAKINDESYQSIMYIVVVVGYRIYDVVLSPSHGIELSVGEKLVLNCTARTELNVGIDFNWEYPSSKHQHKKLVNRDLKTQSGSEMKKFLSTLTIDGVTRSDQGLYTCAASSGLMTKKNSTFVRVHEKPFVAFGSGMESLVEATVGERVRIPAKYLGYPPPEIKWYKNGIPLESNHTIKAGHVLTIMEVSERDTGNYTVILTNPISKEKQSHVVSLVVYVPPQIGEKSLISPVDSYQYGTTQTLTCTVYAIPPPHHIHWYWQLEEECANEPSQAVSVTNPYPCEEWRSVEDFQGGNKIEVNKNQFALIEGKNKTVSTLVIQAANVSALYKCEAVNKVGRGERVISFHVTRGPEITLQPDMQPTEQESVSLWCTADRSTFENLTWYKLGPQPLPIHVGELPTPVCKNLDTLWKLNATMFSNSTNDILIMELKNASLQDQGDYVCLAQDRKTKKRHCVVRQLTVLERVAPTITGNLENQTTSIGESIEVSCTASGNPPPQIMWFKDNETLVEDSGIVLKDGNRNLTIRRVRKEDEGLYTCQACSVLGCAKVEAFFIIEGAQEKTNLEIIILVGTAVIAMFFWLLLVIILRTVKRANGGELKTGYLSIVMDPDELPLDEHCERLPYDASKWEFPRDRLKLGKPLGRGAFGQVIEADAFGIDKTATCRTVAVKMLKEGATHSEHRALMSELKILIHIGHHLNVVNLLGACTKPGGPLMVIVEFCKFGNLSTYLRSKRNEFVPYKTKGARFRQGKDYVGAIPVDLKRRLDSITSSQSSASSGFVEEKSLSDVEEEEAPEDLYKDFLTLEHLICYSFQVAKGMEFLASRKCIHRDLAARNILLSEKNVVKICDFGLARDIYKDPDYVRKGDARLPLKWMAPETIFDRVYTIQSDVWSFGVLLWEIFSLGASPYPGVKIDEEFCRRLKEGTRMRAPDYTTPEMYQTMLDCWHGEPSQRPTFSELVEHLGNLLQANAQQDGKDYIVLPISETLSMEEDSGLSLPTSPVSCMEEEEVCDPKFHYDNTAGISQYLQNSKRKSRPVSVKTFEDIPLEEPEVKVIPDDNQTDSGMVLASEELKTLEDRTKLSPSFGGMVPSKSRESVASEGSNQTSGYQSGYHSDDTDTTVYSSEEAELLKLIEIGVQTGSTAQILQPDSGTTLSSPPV

Compound	pIC50 (RET M918T)	pIC50 (CCDC6-RET)	pIC50 (RET V804M)	pIC50 (RET V804L)	pIC50 (KDR kinase)	Ratio (KDR/RET) (KDR kinase)	pIC50 [1]	pIC50 (Ba/F3 KIF5B-RET cells)
C#C[C@](C)(O)COc1cc(-c2ccc(N3CC4CC(C3)N4Cc3ccc(OC)nc3)nc2)c2c(C#N)cnn2c1 [Embodiment 64, 6-(((S)-2-hydroxy-2-methylbut-3-yn-1-yl)oxy)-4-(6-(6-((6-methoxypyridin-3-yl)methyl)-3,6-diazabicyclo[3.1.1]heptan-3-yl)pyridin-3-yl)pyrazolo[1,5-a]pyridine-3-carbonitrile]	9.77	8.76	8.52	9.64	7.35	118	7.56	7.65
C#C[C@@](C)(O)COc1cc(-c2ccc(N3CC4CC(C3)N4Cc3ccc(OC)nc3)nc2)c2c(C#N)cnn2c1 [Embodiment 63, 6-(((R)-2-hydroxy-2-methylbut-3-yn-1-yl)oxy)-4-(6-(6-((6-methoxypyridin-3-yl)methyl)-3,6-diazabicyclo[3.1.1]heptan-3-yl)pyridin-3-yl)pyrazolo[1,5-a]pyridine-3-carbonitrile]	9.68	9.07	9.22	9.62	7.66	63	7.85	7.96
COc1ncc(CN2C3CC2CN(c2ccc(-c4cc(C#CC(C)(C)O)cn5ncc(C#N)c45)cn2)C3)cc1F [Embodiment 18, 4-(6-(6-((5-Fluoro-6-methoxypyridin-3-yl)methyl)-3,6-diazabicyclo[3.1.1]heptan-3-yl)pyridin-3-yl)-6-(3-hydroxy-3-methylbut-1-yn-1-yl)pyrazolo[1,5-a]pyridine-3-carbonitrile]	9.18		8.74	9.13	7.64	73	7.72	7.65
COc1ccc(CN2C3CC2CN(c2ccc(-c4cc(N5CC(C)(C#N)C5)cn5ncc(C#N)c45)cn2)C3)cn1 [Embodiment 77, 6-(3-Cyano-3-methylazetidin-1-yl)-4-(6-(6-((6-methoxypyridin-3-yl)methyl)-3,6-diazabicyclo[3.1.1]heptan-3-yl)pyridin-3-yl)pyrazolo[1,5-a]pyridine-3-carbonitrile]	9.39	9.01	9.22	9.31	8.16	19	8.39	8.32
